Measurements: patent publication US9834518B2, “Compounds for inhibiting cell proliferation in EGFR-driven cancers” (ARIAD Pharmaceuticals, Inc., priority 2011, dated 2017)

Tests used:
[1] = target: human EGFR (native sequence) (Homo sapiens, UniProt P00533); assay: Kinase inhibition, human EGFR (native sequence); type: biochemical; conditions: 10 μM ATP; 10 pt curves, 3 μM top concentration (singlicates)
Method: (§1) Kinase inhibitory activity of the compounds was measured against human EGFR (native sequence) and against EGFR bearing the L858R mution and the L858R/T790M double mutation (EGFR, L858R, and L858R/T790M, respectively in Table 1). Additional assays can be conducted with EGFR deletion mutants such as delE746-A750 with or without the additional T790M mutation. Assay conditions included 10 pt curves with 3 μM top concentration (singlicates) and 10 μM ATP.

[2] = target: EGFR bearing the L858R mution (Homo sapiens, UniProt P00533, L858R); assay: Kinase inhibition, EGFR L858R; type: biochemical; conditions: 10 μM ATP; 10 pt curves, 3 μM top concentration (singlicates)
Method: as §1

[3] = target: EGFR bearing the L858R/T790M double mutation (Homo sapiens, UniProt P00533, L858R/T790M); assay: Kinase inhibition, EGFR L858R/T790M; type: biochemical; conditions: 10 μM ATP; 10 pt curves, 3 μM top concentration (singlicates)
Method: as §1

BAF3 PARENTAL = assay: Cell proliferation (MTT), BAF3 parental; type: cell-based; conditions: Mus musculus
Method: (§2) We also assessed the antiproliferative activity of compounds of Formula (I) against BaF3 cells expressing the target EGFR mutations or control (i.e., cell lines expressing wildtype EGFR). Assays were conducted using MTT.

[4] = target: BAF3 EGFR DEL T790M PURO POOL (Homo sapiens, UniProt P00533, DEL746-750/T790M, cells depend on it); assay: Cell proliferation (MTT), BAF3 EGFR DEL T790M; type: cell-based
Method: as §2

[5] = system: BAF3 EGFR L858R-T790M PURO POOL; assay: Cell proliferation (MTT), BAF3 EGFR L858R-T790M; type: cell-based; conditions: Ba/F3 EGFR
Method: as §2

human EGFR (native sequence), sequence (P00533 25-1210): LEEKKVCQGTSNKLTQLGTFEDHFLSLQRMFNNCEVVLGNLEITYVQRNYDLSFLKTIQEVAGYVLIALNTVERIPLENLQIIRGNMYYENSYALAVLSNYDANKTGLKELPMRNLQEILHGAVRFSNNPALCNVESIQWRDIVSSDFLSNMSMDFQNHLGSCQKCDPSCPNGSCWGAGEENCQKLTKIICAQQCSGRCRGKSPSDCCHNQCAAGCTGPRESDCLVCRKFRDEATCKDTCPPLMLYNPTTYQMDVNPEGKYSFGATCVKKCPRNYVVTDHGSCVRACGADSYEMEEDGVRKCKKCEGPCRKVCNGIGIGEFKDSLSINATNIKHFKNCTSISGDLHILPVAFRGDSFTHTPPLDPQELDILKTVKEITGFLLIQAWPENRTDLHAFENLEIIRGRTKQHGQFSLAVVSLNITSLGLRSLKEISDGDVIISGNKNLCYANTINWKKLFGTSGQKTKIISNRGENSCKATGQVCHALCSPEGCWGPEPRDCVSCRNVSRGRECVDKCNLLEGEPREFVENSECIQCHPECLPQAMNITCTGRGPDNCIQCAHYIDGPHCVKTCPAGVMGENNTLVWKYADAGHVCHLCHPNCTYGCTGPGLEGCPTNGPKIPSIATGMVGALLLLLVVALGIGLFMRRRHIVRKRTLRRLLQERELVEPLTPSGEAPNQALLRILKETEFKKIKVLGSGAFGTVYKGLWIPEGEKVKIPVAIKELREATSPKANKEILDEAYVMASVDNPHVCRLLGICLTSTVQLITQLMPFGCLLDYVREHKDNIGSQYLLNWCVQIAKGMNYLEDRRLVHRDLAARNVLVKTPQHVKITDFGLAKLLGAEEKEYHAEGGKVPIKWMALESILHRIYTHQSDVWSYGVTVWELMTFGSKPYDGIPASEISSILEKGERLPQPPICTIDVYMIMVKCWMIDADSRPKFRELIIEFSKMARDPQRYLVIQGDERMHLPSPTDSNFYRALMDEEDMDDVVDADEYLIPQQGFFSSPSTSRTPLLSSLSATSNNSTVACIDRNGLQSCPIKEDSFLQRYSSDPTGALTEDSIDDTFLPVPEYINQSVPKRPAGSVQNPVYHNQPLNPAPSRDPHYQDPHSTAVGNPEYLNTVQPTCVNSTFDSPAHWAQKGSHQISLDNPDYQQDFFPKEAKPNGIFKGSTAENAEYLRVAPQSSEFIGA
EGFR bearing the L858R mution, sequence (P00533 25-1210 L858R): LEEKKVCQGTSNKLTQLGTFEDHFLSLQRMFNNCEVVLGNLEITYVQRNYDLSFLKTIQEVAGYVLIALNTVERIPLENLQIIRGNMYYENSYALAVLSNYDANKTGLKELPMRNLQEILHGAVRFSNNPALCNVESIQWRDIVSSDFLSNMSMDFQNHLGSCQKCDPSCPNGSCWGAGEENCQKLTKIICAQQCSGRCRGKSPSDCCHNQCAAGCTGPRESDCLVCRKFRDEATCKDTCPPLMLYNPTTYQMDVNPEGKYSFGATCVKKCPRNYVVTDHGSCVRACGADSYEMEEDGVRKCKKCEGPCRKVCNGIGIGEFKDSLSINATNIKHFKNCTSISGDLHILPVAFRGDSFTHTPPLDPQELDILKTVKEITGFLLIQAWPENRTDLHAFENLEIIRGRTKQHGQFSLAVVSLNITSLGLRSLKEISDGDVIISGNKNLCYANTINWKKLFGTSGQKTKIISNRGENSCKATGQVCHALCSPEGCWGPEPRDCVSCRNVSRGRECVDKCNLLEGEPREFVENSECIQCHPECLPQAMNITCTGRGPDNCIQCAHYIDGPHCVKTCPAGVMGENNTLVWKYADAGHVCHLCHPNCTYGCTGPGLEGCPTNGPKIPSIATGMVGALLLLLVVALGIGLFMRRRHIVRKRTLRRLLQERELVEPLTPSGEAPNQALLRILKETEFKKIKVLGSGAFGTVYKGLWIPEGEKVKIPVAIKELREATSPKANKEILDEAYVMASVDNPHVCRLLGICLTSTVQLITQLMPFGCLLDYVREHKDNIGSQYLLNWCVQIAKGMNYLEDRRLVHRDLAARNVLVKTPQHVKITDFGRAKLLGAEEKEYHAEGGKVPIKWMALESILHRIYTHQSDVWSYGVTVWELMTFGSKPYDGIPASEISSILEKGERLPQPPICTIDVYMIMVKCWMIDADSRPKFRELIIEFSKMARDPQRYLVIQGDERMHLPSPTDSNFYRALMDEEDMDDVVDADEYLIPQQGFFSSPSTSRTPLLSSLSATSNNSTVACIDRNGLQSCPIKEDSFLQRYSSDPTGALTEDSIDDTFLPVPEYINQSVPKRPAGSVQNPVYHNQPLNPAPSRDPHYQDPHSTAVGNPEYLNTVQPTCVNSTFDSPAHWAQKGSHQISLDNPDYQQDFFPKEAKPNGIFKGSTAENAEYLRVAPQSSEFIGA
BAF3 EGFR DEL T790M PURO POOL, sequence (P00533 with tags, fused parts or gaps DEL746-750/T790M): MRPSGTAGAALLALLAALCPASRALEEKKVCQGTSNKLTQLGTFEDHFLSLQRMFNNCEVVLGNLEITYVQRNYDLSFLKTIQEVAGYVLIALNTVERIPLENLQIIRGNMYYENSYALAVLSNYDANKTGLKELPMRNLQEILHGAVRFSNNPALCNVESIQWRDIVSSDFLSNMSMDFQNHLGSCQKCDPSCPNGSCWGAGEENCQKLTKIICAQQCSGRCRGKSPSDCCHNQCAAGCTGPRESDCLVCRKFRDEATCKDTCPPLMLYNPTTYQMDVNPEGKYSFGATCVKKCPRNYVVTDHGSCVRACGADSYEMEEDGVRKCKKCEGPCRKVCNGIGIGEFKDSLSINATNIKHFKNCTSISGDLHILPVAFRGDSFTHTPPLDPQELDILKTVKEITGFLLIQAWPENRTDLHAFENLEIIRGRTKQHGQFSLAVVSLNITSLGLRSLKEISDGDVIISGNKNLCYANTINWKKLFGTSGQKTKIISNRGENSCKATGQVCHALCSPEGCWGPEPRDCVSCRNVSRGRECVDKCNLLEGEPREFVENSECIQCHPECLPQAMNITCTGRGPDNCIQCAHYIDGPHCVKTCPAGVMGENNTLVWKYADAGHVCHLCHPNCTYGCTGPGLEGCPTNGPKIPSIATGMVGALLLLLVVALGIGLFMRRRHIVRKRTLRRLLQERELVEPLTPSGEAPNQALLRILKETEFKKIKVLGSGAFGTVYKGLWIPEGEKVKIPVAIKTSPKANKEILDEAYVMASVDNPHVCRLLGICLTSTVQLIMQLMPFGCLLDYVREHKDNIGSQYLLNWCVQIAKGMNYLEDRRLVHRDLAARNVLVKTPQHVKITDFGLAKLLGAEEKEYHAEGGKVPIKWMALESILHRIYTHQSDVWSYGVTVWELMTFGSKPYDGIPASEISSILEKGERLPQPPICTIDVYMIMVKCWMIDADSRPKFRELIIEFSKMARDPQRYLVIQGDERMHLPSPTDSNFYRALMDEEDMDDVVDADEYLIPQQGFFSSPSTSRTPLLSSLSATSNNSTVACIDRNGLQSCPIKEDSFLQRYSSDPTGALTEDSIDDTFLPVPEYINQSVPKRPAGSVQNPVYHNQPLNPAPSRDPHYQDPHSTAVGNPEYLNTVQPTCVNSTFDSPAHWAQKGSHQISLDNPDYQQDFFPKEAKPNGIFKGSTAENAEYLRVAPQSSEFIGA
EGFR bearing the L858R/T790M double mutation, sequence (P00533 25-1210 T790M/L858R): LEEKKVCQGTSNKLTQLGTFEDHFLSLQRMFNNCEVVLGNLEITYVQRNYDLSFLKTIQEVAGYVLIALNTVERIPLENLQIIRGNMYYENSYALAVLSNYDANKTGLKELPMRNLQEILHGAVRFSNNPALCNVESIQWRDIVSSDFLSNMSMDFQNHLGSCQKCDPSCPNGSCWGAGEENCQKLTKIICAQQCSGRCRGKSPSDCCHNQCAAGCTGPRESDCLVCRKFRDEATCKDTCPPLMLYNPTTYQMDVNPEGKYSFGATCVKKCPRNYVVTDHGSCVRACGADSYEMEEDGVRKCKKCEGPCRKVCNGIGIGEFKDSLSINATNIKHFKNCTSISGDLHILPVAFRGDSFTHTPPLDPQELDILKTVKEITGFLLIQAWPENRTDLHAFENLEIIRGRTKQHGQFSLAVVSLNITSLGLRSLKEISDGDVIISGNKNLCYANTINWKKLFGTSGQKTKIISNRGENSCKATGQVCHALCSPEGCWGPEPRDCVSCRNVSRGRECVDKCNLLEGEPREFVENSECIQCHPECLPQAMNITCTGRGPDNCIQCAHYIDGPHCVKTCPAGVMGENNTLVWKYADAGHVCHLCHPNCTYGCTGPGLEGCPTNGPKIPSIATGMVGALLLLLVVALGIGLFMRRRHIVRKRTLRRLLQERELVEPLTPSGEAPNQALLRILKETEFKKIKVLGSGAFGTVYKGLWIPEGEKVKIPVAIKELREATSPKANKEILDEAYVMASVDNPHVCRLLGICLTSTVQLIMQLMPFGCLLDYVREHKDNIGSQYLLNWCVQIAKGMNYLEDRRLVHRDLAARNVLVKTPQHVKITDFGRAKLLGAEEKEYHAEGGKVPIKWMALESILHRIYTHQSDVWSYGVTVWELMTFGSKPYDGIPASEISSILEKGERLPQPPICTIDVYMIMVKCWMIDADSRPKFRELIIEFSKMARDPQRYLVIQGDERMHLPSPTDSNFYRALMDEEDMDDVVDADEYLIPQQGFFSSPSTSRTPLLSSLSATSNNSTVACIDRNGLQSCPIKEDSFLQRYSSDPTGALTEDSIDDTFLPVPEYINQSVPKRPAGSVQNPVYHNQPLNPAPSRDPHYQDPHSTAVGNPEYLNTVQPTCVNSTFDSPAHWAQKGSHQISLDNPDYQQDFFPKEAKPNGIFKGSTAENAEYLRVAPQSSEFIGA

| Compound | IC50 [1] | IC50 [2] | IC50 [3] | IC50 [4] | IC50 [5] | IC50 (BAF3 PARENTAL) |
| --- | --- | --- | --- | --- | --- | --- |
| CC#CC(=O)Nc1ccc(OC)c(Nc2ncc(Cl)c(Nc3ccccc3P(C)(C)=O)n2)c1 [Example 6b, N-(3-((5-chloro-4-((2-(dimethylphosphoryl)phenyl)amino)pyrimidin-2-yl)amino)-4-methoxyphenyl)but-2-ynamide] | ≥ 250 nM | 51 to 100 nM | ≥ 250 nM | < 51 nM | 51 to 100 nM | ≥ 250 nM |
| C=CC(=O)Nc1cccc(Oc2nc(Nc3ccc(P(C)(C)=O)cc3OC)ncc2Cl)c1 [Example 9, N-(3-((5-chloro-2-((4-(dimethylphosphoryl)-2-methoxyphenyl)amino)pyrimidin-4-yl)oxy)phenyl)acrylamide] | 101 to 250 nM | < 51 nM | < 51 nM | 51 to 100 nM | 51 to 100 nM | ≥ 250 nM |
| C=CC(=O)Nc1ccc(OC)c(Nc2ncc(F)c(Nc3ccccc3P(C)(C)=O)n2)c1 [Example 11, N-(3-((4-((2-(dimethylphosphoryl)phenyl)amino)-5-fluoropyrimidin-2-yl)amino)-4-methoxyphenyl)acrylamide] | 101 to 250 nM | < 51 nM | < 51 nM | 51 to 100 nM | 101 to 250 nM | ≥ 250 nM |
| C=CC(=O)Nc1ccc(OC)c(Nc2nccc(Nc3ccccc3P(C)(C)=O)n2)c1 [Example 13, N-(3-((4-((2-(dimethylphosphoryl)phenyl)amino)pyrimidin-2-yl)amino)-4-methoxyphenyl)acrylamide] | ≥ 250 nM | 51 to 100 nM | < 51 nM | 101 to 250 nM | ≥ 250 nM | ≥ 250 nM |
| C=CC(=O)Nc1ccc(OC)c(Nc2ncc(Cl)c(Nc3cccc(C)c3P(C)(C)=O)n2)c1 [Example 14, N-(3-((5-chloro-4-((2-(dimethylphosphoryl)-3-methylphenyl)amino)pyrimidin-2-yl)amino)-4-methoxyphenyl)acrylamide] | 51 to 100 nM | < 51 nM | < 51 nM | < 51 nM | < 51 nM | ≥ 250 nM |
| C=CC(=O)Nc1cc(Nc2ncc(Cl)c(Nc3ccccc3P(C)(C)=O)n2)c(OC)cc1N1CCN(C)CC1 [Example 18, N-(5-((5-chloro-4-((2-(dimethylphosphoryl)phenyl)amino)pyrimidin-2-yl)amino)-4-methoxy-2-(4-methylpiperazin-1-yl)phenyl)acrylamide] | 51 to 100 nM | < 51 nM | < 51 nM | < 51 nM | 51 to 100 nM | ≥ 250 nM |
| C=CC(=O)Nc1cc(Nc2ncc(Cl)c(Nc3ccccc3P(C)(C)=O)n2)c(OC)cc1OC [Example 20, N-(5-((5-chloro-4-((2-(dimethylphosphoryl)phenyl)amino)pyrimidin-2-yl)amino)-2,4-dimethoxyphenyl)acrylamide] | ≥ 250 nM | < 51 nM | < 51 nM | < 51 nM | 101 to 250 nM | ≥ 250 nM |
| C=CC(=O)N(CCCN(C)C)c1ccc(OC)c(Nc2ncc(Cl)c(Nc3ccccc3P(C)(C)=O)n2)c1 [Example 21, N-(3-((5-chloro-4-((2-(dimethylphosphoryl)phenyl)amino)pyrimidin-2-yl)amino)-4-methoxyphenyl)-N-(3-(dimethylamino)propyl)acrylamide] | ≥ 250 nM | 101 to 250 nM | 51 to 100 nM | 101 to 250 nM | ≥ 250 nM | ≥ 250 nM |
| C=CC(=O)Nc1cc(Nc2ncc(Cl)c(Nc3ccccc3P(C)(C)=O)n2)c(OC)cc1OC1CCOC1 (stereo not drawn) [Example 24, N-(5-((5-chloro-4-((2-(dimethylphosphoryl)phenyl)amino)pyrimidin-2-yl)amino)-4-methoxy-2-((tetrahydrofuran-3-yl)oxy)phenyl)acrylamide] | ≥ 250 nM | < 51 nM | < 51 nM | ≥ 250 nM | 101 to 250 nM | ≥ 250 nM |
| C=CC(=O)Nc1cc(Nc2ncc(Cl)c(Nc3ccccc3P(C)(C)=O)n2)c(OC)cc1OCCOC [Example 25, N-(5-((5-chloro-4-((2-(dimethylphosphoryl)phenyl)amino)pyrimidin-2-yl)amino)-4-methoxy-2-(2-methoxyethoxy)phenyl)acrylamide] | ≥ 250 nM | < 51 nM | < 51 nM | < 51 nM | 51 to 100 nM | ≥ 250 nM |
| C=CC(=O)N(C(=O)C=C)c1ccc(OC)c(Nc2ncc(Cl)c(Nc3ccccc3P(C)(C)=O)n2)c1 [Example 26, N-acryloyl-N-(3-((5-chloro-4-((2-(dimethylphosphoryl)phenyl)amino)pyrimidin-2-yl)amino)-4-methoxyphenyl)acrylamide] | ≥ 250 nM | 101 to 250 nM | 101 to 250 nM | < 51 nM | 51 to 100 nM | ≥ 250 nM |
| C=CC(=O)Nc1cc(Nc2ncc(Cl)c(Nc3ccccc3P(C)(C)=O)n2)c(OC)cc1N1CCOCC1 [Example 32, N-(5-((5-chloro-4-((2-(dimethylphosphoryl)phenyl)amino)pyrimidin-2-yl)amino)-4-methoxy-2-morpholinophenyl)acrylamide] | ≥ 250 nM | < 51 nM | < 51 nM | < 51 nM | 51 to 100 nM | ≥ 250 nM |

Continued, in another order:

| IC50 [1] | IC50 [2] | IC50 [3] | IC50 [4] | IC50 [5] | Compound | IC50 (BAF3 PARENTAL) |
| --- | --- | --- | --- | --- | --- | --- |
| < 51 nM | < 51 nM | < 51 nM | < 51 nM | < 51 nM | COc1ccc(NC(=O)C2(C)CO2)cc1Nc1ncc(Cl)c(Nc2ccccc2P(C)(C)=O)n1 (stereo not drawn) [Example 10, N-(3-((5-chloro-4-((2-(dimethylphosphoryl)phenyl)amino)pyrimidin-2-yl)amino)-4-methoxyphenyl)-2-methyloxirane-2-carboxamide] | ≥ 250 nM |
| < 51 nM | < 51 nM | < 51 nM | < 51 nM | < 51 nM | C=CC(=O)Nc1ccc(OC)c(Nc2ncc(Br)c(Nc3ccccc3P(C)(C)=O)n2)c1 [Example 12, N-(3-((5-bromo-4-((2-(dimethylphosphoryl)phenyl)amino)pyrimidin-2-yl)amino)-4-methoxyphenyl)acrylamide] | ≥ 250 nM |
| < 51 nM | < 51 nM | < 51 nM | < 51 nM | < 51 nM | C=CC(=O)Nc1ccc(OC)c(Nc2ncc(Cl)c(Nc3ccccc3P(=O)(CC)CC)n2)c1 [Example 15, N-(3-((5-chloro-4-((2-(diethylphosphoryl)phenyl)amino)pyrimidin-2-yl)amino)-4-methoxyphenyl)acrylamide] | ≥ 250 nM |
| < 51 nM | < 51 nM | < 51 nM | < 51 nM | < 51 nM | C=C(CN(C)C)C(=O)Nc1ccc(OC)c(Nc2ncc(Cl)c(Nc3ccccc3P(C)(C)=O)n2)c1 [Example 17, N-(3-((5-chloro-4-((2-(dimethylphosphoryl)phenyl)amino)pyrimidin-2-yl)amino)-4-methoxyphenyl)-2-((dimethylamino)methyl)acrylamide] | ≥ 250 nM |
| < 51 nM | < 51 nM | < 51 nM | < 51 nM | < 51 nM | C=CC(=O)Nc1cc(Nc2ncc(Cl)c(Nc3ccccc3P(C)(C)=O)n2)c(OC)cc1OCCN(C)C [Example 19, N-(5-((5-chloro-4-((2-(dimethylphosphoryl)phenyl)amino)pyrimidin-2-yl)amino)-2-(2-(dimethylamino)ethoxy)-4-methoxyphenyl)acrylamide] | ≥ 250 nM |
| < 51 nM | < 51 nM | < 51 nM | < 51 nM | < 51 nM | C=CC(=O)Nc1cc(Nc2ncc(Cl)c(Nc3ccccc3P(C)(C)=O)n2)c(OC)cc1F [Example 22] | ≥ 250 nM |
| < 51 nM | < 51 nM | < 51 nM | < 51 nM | < 51 nM | C=CC(=O)Nc1cc(Nc2ncc(Cl)c(Nc3ccccc3P(C)(C)=O)n2)c(OC)cc1OC(COC)CN(CC)CC (stereo not drawn) [Example 27] | ≥ 250 nM |
| < 51 nM | < 51 nM | < 51 nM | < 51 nM | < 51 nM | C=CC(=O)Nc1cc(Nc2ncc(Cl)c(Nc3ccccc3P(C)(C)=O)n2)c(OC)cc1OC(COC)CN(C)C (stereo not drawn) [Example 28, N-(5-((5-chloro-4-((2-(dimethylphosphoryl)phenyl)amino)pyrimidin-2-yl)amino)-2-((1-(dimethylamino)-3-methoxypropan-2-yl)oxy)-4-methoxyphenyl)acrylamide] | ≥ 250 nM |
| < 51 nM | < 51 nM | < 51 nM | < 51 nM | < 51 nM | C=CC(=O)Nc1cc(Nc2ncc(Cl)c(Nc3ccccc3P(C)(C)=O)n2)c(OC)cc1N(C)CCN(CC)CC [Example 33, N-(5-((5-chloro-4-((2-(dimethylphosphoryl)phenyl)amino)pyrimidin-2-yl)amino)-2-((2-(diethylamino)ethyl)(methyl)amino)-4-methoxyphenyl)acrylamide] | ≥ 250 nM |
